Converted amounts (≈) assume the structure as drawn. Read-outs that look alike come from different tables or passages of the source.
Key:
[1] = test system: Enterococcus faecalis EFA 15-1; test: microbe, parasite or virus in culture; parameters: species or system gram-positive clinical isolates; conditions: Enterococcus faecalis
[2] = test system: Enterococcus faecalis EFA 15-2; test: microbe, parasite or virus in culture; parameters: species or system gram-positive clinical isolates; conditions: Enterococcus faecalis
[3] = test system: Enterococcus faecalis EFA 15-58; test: microbe, parasite or virus in culture; parameters: species or system gram-positive clinical isolates; conditions: Enterococcus faecalis
[4] = test system: Enterococcus faecalis EFA 15-60; test: microbe, parasite or virus in culture; parameters: species or system gram-positive clinical isolates; conditions: Enterococcus faecalis
[5] = test system: Enterococcus faecalis EFA 15-66; test: microbe, parasite or virus in culture; parameters: species or system gram-positive clinical isolates; conditions: Enterococcus faecalis
[6] = test system: Enterococcus faecium EFM 15-11; test: microbe, parasite or virus in culture; parameters: species or system gram-positive clinical isolates; conditions: Enterococcus faecium
[7] = test system: Enterococcus faecium EFM 15-2; test: microbe, parasite or virus in culture; parameters: species or system gram-positive clinical isolates; conditions: Enterococcus faecium
[8] = test system: Enterococcus faecium EFM 15-6; test: microbe, parasite or virus in culture; parameters: species or system gram-positive clinical isolates; conditions: Enterococcus faecium
[9] = test system: Enterococcus faecium EFM 15-8; test: microbe, parasite or virus in culture; parameters: species or system gram-positive clinical isolates; conditions: Enterococcus faecium
[10] = test system: Staphylococcus aureus MRSA 17-10; test: microbe, parasite or virus in culture; parameters: species or system gram-positive clinical isolates; conditions: Staphylococcus aureus, MRSA
[11] = test system: Staphylococcus aureus MRSA 17-2; test: microbe, parasite or virus in culture; parameters: species or system gram-positive clinical isolates; conditions: Staphylococcus aureus, MRSA
[12] = test system: Staphylococcus aureus MRSA 17-3; test: microbe, parasite or virus in culture; parameters: species or system gram-positive clinical isolates; conditions: Staphylococcus aureus, MRSA
[13] = test system: Staphylococcus aureus MRSA 17-4; test: microbe, parasite or virus in culture; parameters: species or system gram-positive clinical isolates; conditions: Staphylococcus aureus, MRSA
[14] = test system: Staphylococcus aureus MRSA 17-6; test: microbe, parasite or virus in culture; parameters: species or system gram-positive clinical isolates; conditions: Staphylococcus aureus, MRSA
[15] = test system: Staphylococcus aureus MSSA 15-5; test: microbe, parasite or virus in culture; parameters: species or system gram-positive clinical isolates; conditions: Staphylococcus aureus, MSSA
[16] = test system: Staphylococcus aureus MSSA 15-6; test: microbe, parasite or virus in culture; parameters: species or system gram-positive clinical isolates; conditions: Staphylococcus aureus, MSSA
[17] = test system: Staphylococcus epidermidis MRSE 15-2; test: microbe, parasite or virus in culture; parameters: species or system gram-positive clinical isolates; conditions: Staphylococcus epidermidis, MRSE
[18] = test system: Staphylococcus epidermidis MRSE 15-3; test: microbe, parasite or virus in culture; parameters: species or system gram-positive clinical isolates; conditions: Staphylococcus epidermidis, MRSE
[19] = test system: Staphylococcus epidermidis MRSE 15-81; test: microbe, parasite or virus in culture; parameters: species or system gram-positive clinical isolates; conditions: Staphylococcus epidermidis, MRSE
[20] = test system: Staphylococcus epidermidis MRSE 15-82; test: microbe, parasite or virus in culture; parameters: species or system gram-positive clinical isolates; conditions: Staphylococcus epidermidis, MRSE
[21] = test system: Staphylococcus epidermidis MRSE 15-83; test: microbe, parasite or virus in culture; parameters: species or system gram-positive clinical isolates; conditions: Staphylococcus epidermidis, MRSE
[22] = test system: Staphylococcus epidermidis MRSE 17-1; test: microbe, parasite or virus in culture; parameters: species or system gram-positive clinical isolates; conditions: Staphylococcus epidermidis, MRSE
[23] = test system: Staphylococcus epidermidis MRSE 17-3; test: microbe, parasite or virus in culture; parameters: species or system gram-positive clinical isolates; conditions: Staphylococcus epidermidis, MRSE
[24] = test system: S. aureus ATCC 29213; test: microbe, parasite or virus in culture; conditions: Staphylococcus aureus, ATCC29213, read-out: MIC (µg/mL)
[25] = in vitro; conditions: mouse, liver microsomes
[26] = in vitro; conditions: Mouse plasma
[27] = read-out: MIC(μg/ml) / vancomycin

CCCCCOc1ccc(C(=O)NNC(=S)NC(C)=O)cc1 [1b, N-(2-(4-(n-pentoxy)benzoyl)hydrazine-1-carbonothioyl)acetamide]
MIC ([1]; EFA151, read-out: MIC(μg/ml) / 1b): 8 µg/mL (≈ 24.7 µM) | MIC ([2]; EFA152, read-out: MIC(μg/ml) / 1b): 8 µg/mL (≈ 24.7 µM) | MIC ([3]; EFA1558, read-out: MIC(μg/ml) / 1b): 4 µg/mL (≈ 12.4 µM) | MIC ([4]; EFA1560, read-out: MIC(μg/ml) / 1b): 8 µg/mL (≈ 24.7 µM) | MIC ([5]; EFA1566, read-out: MIC(μg/ml) / 1b): 4 µg/mL (≈ 12.4 µM) | MIC ([6]; EFM1511, read-out: MIC(μg/ml) / 1b): 4 µg/mL (≈ 12.4 µM) | MIC ([7]; EFM152, read-out: MIC(μg/ml) / 1b): 4 µg/mL (≈ 12.4 µM) | MIC ([8]; EFM156, read-out: MIC(μg/ml) / 1b): 2 µg/mL (≈ 6.18 µM) | MIC ([9]; EFM158, read-out: MIC(μg/ml) / 1b): 2 µg/mL (≈ 6.18 µM) | MIC ([10]; read-out: MIC(μg/ml) / 1b): 2 µg/mL (≈ 6.18 µM) | MIC ([11]; read-out: MIC(μg/ml) / 1b): 4 µg/mL (≈ 12.4 µM) | MIC ([12]; read-out: MIC(μg/ml) / 1b): 2 µg/mL (≈ 6.18 µM) | MIC ([13]; read-out: MIC(μg/ml) / 1b): 2 µg/mL (≈ 6.18 µM) | MIC ([14]; read-out: MIC(μg/ml) / 1b): 2 µg/mL (≈ 6.18 µM) | MIC ([15]; read-out: MIC(μg/ml) / 1b): 2 µg/mL (≈ 6.18 µM) | MIC ([16]; read-out: MIC(μg/ml) / 1b): 2 µg/mL (≈ 6.18 µM) | MIC ([17]; read-out: MIC(μg/ml) / 1b): 4 µg/mL (≈ 12.4 µM) | MIC ([18]; read-out: MIC(μg/ml) / 1b): 2 µg/mL (≈ 6.18 µM) | MIC ([19]; read-out: MIC(μg/ml) / 1b): 0.5 µg/mL (≈ 1.55 µM) | MIC ([20]; read-out: MIC(μg/ml) / 1b): 1 µg/mL (≈ 3.09 µM) | MIC ([21]; read-out: MIC(μg/ml) / 1b): 1 µg/mL (≈ 3.09 µM) | MIC ([22]; read-out: MIC(μg/ml) / 1b): 0.5 µg/mL (≈ 1.55 µM) | MIC ([23]; read-out: MIC(μg/ml) / 1b): 1 µg/mL (≈ 3.09 µM) | MIC [24]: 0.78 µg/mL (≈ 2.41 µM) | microsomal CLint [25]: 49 µL/min/mg | Mouse plasma T1/2 [26]: >2 h

CN[C@H](CC(C)C)C(=O)N[C@H]1C(=O)N[C@@H](CC(N)=O)C(=O)N[C@H]2C(=O)N[C@H]3C(=O)N[C@H](C(=O)N[C@H](C(=O)O)c4cc(O)cc(O)c4-c4cc3ccc4O)[C@H](O)c3ccc(c(Cl)c3)Oc3cc2cc(c3O[C@@H]2O[C@H](CO)[C@@H](O)[C@H](O)[C@H]2O[C@H]2C[C@](C)(N)[C@H](O)[C@H](C)O2)Oc2ccc(cc2Cl)[C@H]1O [vancomycin]
MIC ([1]; EFA151, read-out: MIC(μg/ml) / vancomycin): 0.5 µg/mL (≈ 0.345 µM) | MIC ([2]; EFA152, read-out: MIC(μg/ml) / vancomycin): 0.5 µg/mL (≈ 0.345 µM) | MIC ([3]; EFA1558, read-out: MIC(μg/ml) / vancomycin): 0.5 µg/mL (≈ 0.345 µM) | MIC ([4]; EFA1560, read-out: MIC(μg/ml) / vancomycin): 8 µg/mL (≈ 5.52 µM) | MIC ([5]; EFA1566, read-out: MIC(μg/ml) / vancomycin): 2 µg/mL (≈ 1.38 µM) | MIC ([6]; EFM1511, read-out: MIC(μg/ml) / vancomycin): 0.5 µg/mL (≈ 0.345 µM) | MIC ([7]; EFM152, read-out: MIC(μg/ml) / vancomycin): 2 µg/mL (≈ 1.38 µM) | MIC ([8]; EFM156, read-out: MIC(μg/ml) / vancomycin): 1 µg/mL (≈ 0.69 µM) | MIC ([9]; EFM158, read-out: MIC(μg/ml) / vancomycin): 0.5 µg/mL (≈ 0.345 µM) | MIC [10, 27]: 1 µg/mL (≈ 0.69 µM) | MIC [11, 27]: 0.5 µg/mL (≈ 0.345 µM) | MIC [12, 27]: 1 µg/mL (≈ 0.69 µM) | MIC [13, 27]: 1 µg/mL (≈ 0.69 µM) | MIC [14, 27]: 0.5 µg/mL (≈ 0.345 µM) | MIC [15, 27]: 0.5 µg/mL (≈ 0.345 µM) | MIC [16, 27]: 0.5 µg/mL (≈ 0.345 µM) | MIC [17, 27]: 2 µg/mL (≈ 1.38 µM) | MIC [18, 27]: 2 µg/mL (≈ 1.38 µM) | MIC [19, 27]: 2 µg/mL (≈ 1.38 µM) | MIC [20, 27]: 1 µg/mL (≈ 0.69 µM) | MIC [21, 27]: 1 µg/mL (≈ 0.69 µM) | MIC [22, 27]: 1 µg/mL (≈ 0.69 µM) | MIC [23, 27]: 2 µg/mL (≈ 1.38 µM)

— article doi:10.1101/2024.09.05.611349v1 (biorxiv, 2024)
